Measured values reported in patent US8455534B2, “Estrogen receptor modulators and uses thereof” (Aragon Pharmaceuticals, Inc., priority 2010, dated 2013).

Experiments:
MCF-7 cells = assay: Breast Cancer Cell Viability Assay (MCF-7, CellTiter-Glo); type: cell-based; details: 5 days' compound exposure; for IC50: Homo sapiens, MCF7, 120 h
Outline: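 MCF-7 cells, 320 per well in RPMI with 10% FBS and 20 mM HEPES, adhered overnight, then exposed 5 days to an eleven-point semilog dilution (final 0.3-0.000003 μM). CellTiter-Glo luminescence read; % viability = (sample − cell-free background)/(untreated − background) × 100.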

ER-α = biological target: T1, ER-α (Homo sapiens, UniProt P03372); assay: Breast Cancer Cell ER-α In Cell Western Assay (SP1); type: cell-based; details: MCF-7 cells, SP1 antibody, 4 or 24 hr post compound addition; for Emax: MCF7, read-out: ER-α In Cell Western Assay (SP1) Max Response; for DC50: read-out: ER-α In Cell Western Assay (SP1) IC50
T1 sequence (P03372 1-595): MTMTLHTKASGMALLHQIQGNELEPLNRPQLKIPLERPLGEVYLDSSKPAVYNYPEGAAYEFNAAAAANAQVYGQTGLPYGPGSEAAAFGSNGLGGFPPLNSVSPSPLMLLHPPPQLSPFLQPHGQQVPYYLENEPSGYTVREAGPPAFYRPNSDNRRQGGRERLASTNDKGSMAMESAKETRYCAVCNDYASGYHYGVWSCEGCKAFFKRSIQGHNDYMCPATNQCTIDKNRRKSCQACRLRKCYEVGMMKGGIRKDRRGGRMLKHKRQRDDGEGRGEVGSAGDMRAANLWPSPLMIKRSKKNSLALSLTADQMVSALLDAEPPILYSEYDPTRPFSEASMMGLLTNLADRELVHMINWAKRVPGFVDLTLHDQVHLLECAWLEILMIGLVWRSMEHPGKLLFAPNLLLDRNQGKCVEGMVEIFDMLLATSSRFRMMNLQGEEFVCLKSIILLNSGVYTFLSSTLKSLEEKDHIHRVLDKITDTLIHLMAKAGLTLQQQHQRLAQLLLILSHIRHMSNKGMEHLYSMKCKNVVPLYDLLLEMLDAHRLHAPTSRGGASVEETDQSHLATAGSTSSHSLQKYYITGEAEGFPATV
Outline: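 ER-α protein levels measured by in-cell western with SP1 antibody, ratioed to DRAQ5 DNA signal and given as percent of untreated controls. Compounds added at 0.3–0.000003 μM final (eleven semilog points) to adherent MCF-7 cells in stripped serum; exposure 4 or 24 h before fixation.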

Structure (SMILES)	IC50 (MCF-7 cells)	Emax (ER-α)	DC50 (ER-α)	MCF7 Viability Assay Max Response (MCF-7 cells)
CCOC(=O)/C=C/c1ccc(/C(=C(/CC)c2ccc(F)cc2)c2ccc3[nH]ncc3c2)cc1 [Compound 90, (E)-Ethyl 3-(4-((E)-2-(4-fluorophenyl)-1-(1H-indazol-5-yl)but-1-en-1-yl)phenyl)acrylate]	≤ 100 nM	≥ 40%	≤ 100 nM	+ (+ = a single % value < 40%)
CCCCOc1cccc(/C(CC)=C(\c2ccc(/C=C/C(=O)O)cc2)c2ccc3[nH]ncc3c2)c1 [Compound 96, (E)-3-(4-((E)-2-(3-Butoxyphenyl)-1-(1H-indazol-5-yl)but-1-en-1-yl)phenyl)acrylic acid]	≤ 100 nM	≥ 40%	≤ 100 nM	++ (++ = a single % value ≧ 40%)
CCCCOc1ccc(/C(CC)=C(\c2ccc(/C=C/C(=O)O)cc2)c2ccc3[nH]ncc3c2)cc1 [Compound 97, (E)-3-(4-((E)-2-(4-Butoxyphenyl)-1-(1H-indazol-5-yl)but-1-en-1-yl)phenyl)acrylic acid]	≤ 100 nM	≥ 40%	≤ 100 nM	++ (++ = a single % value ≧ 40%)
CC/C(=C(/c1ccc(/C=C(\C)C(=O)O)cc1)c1ccc2[nH]ncc2c1)c1ccccc1 [Compound 99, (E)-3-(4-((E)-1-(1H-Indazol-5-yl)-2-phenylbut-1-en-1-yl)phenyl)-2-methylacrylic acid]	≤ 100 nM	≥ 40%	≤ 100 nM	++ (++ = a single % value ≧ 40%)
CC/C(=C(\c1ccc2[nH]ncc2c1)c1ccc(/C=C/C(=O)O)cc1C)c1ccccc1 [Compound 100, (E)-3-(4-((Z)-1-(1H-Indazol-5-yl)-2-phenylbut-1-en-1-yl)-3-methylphenyl)acrylic acid]	≤ 100 nM	≥ 40%		++ (++ = a single % value ≧ 40%)
CC/C(=C(/c1ccc(/C=C/C(=O)O)c(C)c1)c1ccc2[nH]ncc2c1)c1ccccc1 [Compound 101, (E)-3-(4-((E)-1-(1H-Indazol-5-yl)-2-phenylbut-1-en-1-yl)-2-methylphenyl)acrylic acid]	≤ 100 nM	≥ 40%		++ (++ = a single % value ≧ 40%)
CC/C(=C(/c1ccc(/C=C/C(=O)O)c(Cl)c1)c1ccc2[nH]ncc2c1)c1ccccc1 [Compound 102, (E)-3-(4-((Z)-1-(1H-Indazol-5-yl)-2-phenylbut-1-en-1-yl)-2-chlorophenyl)acrylic acid]	≤ 100 nM	≥ 40%	≤ 100 nM	++ (++ = a single % value ≧ 40%)
CC/C(=C(/c1ccc(/C=C(\F)C(=O)O)cc1)c1ccc2[nH]ncc2c1)c1ccccc1 [Compound 103, (Z)-3-(4-((E)-1-(1H-Indazol-5-yl)-2-phenylbut-1-en-1-yl)phenyl)-2-fluoroacrylic acid]	> 100 nM	≥ 40%	≤ 100 nM	++ (++ = a single % value ≧ 40%)
CC/C(=C(/c1ccc(/C=C(\Cl)C(=O)O)cc1)c1ccc2[nH]ncc2c1)c1ccccc1 [Compound 104, (Z)-3-(4-((E)-1-(1H-Indazol-5-yl)-2-phenylbut-1-en-1-yl)phenyl)-2-chloroacrylic acid]	> 100 nM	≥ 40%	≤ 100 nM	++ (++ = a single % value ≧ 40%)
CC/C(=C(\c1ccc2[nH]ncc2c1)c1ccc(/C=C/C(=O)O)cc1F)c1ccccc1 [Compound 105, (E)-3-(4-((Z)-1-(1H-Indazol-5-yl)-2-phenylbut-1-en-1-yl)-3-fluorophenyl)acrylic acid]	≤ 100 nM	≥ 40%	≤ 100 nM	++ (++ = a single % value ≧ 40%)
CC/C(=C(/c1ccc(/C=C/C(=O)O)c(F)c1)c1ccc2[nH]ncc2c1)c1ccccc1 [Compound 106, (E)-3-(4-((Z)-1-(1H-Indazol-5-yl)-2-phenylbut-1-en-1-yl)-2-fluorophenyl)acrylic acid]	≤ 100 nM	≥ 40%	≤ 100 nM	++ (++ = a single % value ≧ 40%)
CC/C(=C(/c1ccc(/C=C/C(=O)O)c(C(F)(F)F)c1)c1ccc2[nH]ncc2c1)c1ccccc1 [Compound 107, (E)-3-(4-((Z)-1-(1H-Indazol-5-yl)-2-phenylbut-1-en-1-yl)-2-(trifluoromethyl)phenyl)acrylic acid]	> 100 nM	≥ 40%	≤ 100 nM	++ (++ = a single % value ≧ 40%)
CC/C(=C(\c1ccc2[nH]ncc2c1)c1ccc(/C=C/C(=O)O)cc1OC)c1ccccc1 [Compound 108, (E)-3-(4-((Z)-1-(1H-Indazol-5-yl)-2-phenylbut-1-en-1-yl)-3-methoxyphenyl)acrylic acid]	≤ 100 nM	≥ 40%		++ (++ = a single % value ≧ 40%)

Continued, in another order:

IC50 (MCF-7 cells)	Emax (ER-α)	DC50 (ER-α)	Structure (SMILES)	MCF7 Viability Assay Max Response (MCF-7 cells)
≤ 100 nM	≥ 40%	≤ 100 nM	O=C(O)/C=C/c1ccc(/C(=C(\c2ccc(F)cc2Cl)C2CCC2)c2ccc3[nH]ncc3c2)cc1 [Compound 85, (E)-3-(4-((E)-2-(2-Chloro-4-fluorophenyl)-2-cyclobutyl-1-(1H-indazol-5-yl)vinyl)phenyl)acrylic acid]	++ (++ = a single % value ≧ 40%)
≤ 100 nM	≥ 40%	≤ 100 nM	CC/C(=C(/c1ccc(/C=C/C(=O)O)cc1)c1ccc2[nH]nc(F)c2c1)c1ccccc1 [Compound 86, (E)-3-(4-((E)-1-(3-Fluoro-1H-indazol-5-yl)-2-phenylbut-1-en-1-yl)phenyl)acrylic acid]	++ (++ = a single % value ≧ 40%)
≤ 100 nM	≥ 40%	≤ 100 nM	O=C(O)/C=C/c1ccc(/C(=C(\c2ccccc2)C2CCC2)c2ccc3[nH]nc(F)c3c2)cc1 [Compound 87, (E)-3-(4-((E)-2-Cyclobutyl-1-(3-fluoro-1H-indazol-5-yl)-2-phenylvinyl)phenyl)acrylic acid]	++ (++ = a single % value ≧ 40%)
≤ 100 nM	≥ 40%	≤ 100 nM	CC/C(=C(/c1ccc(/C=C/C(=O)O)cc1)c1ccc2[nH]nc(F)c2c1)c1ccc(F)cc1Cl [Compound 88, (E)-3-(4-((E)-2-(2-Chloro-4-fluorophenyl)-1-(3-fluoro-1H-indazol-5-yl)but-1-en-1-yl)phenyl)acrylic acid]	++ (++ = a single % value ≧ 40%)
≤ 100 nM	≥ 40%	≤ 100 nM	O=C(O)/C=C/c1ccc(/C(=C(\c2ccc(F)cc2Cl)C2CCC2)c2ccc3[nH]nc(F)c3c2)cc1 [Compound 89, (E)-3-(4-((E)-2-(2-Chloro-4-fluorophenyl)-2-cyclobutyl-1-(3-fluoro-1H-indazol-5-yl)vinyl)phenyl)acrylic acid]	++ (++ = a single % value ≧ 40%)
≤ 100 nM	≥ 40%	≤ 100 nM	CC/C(=C(/c1ccc(/C=C/C(=O)O)cc1)c1ccc2[nH]ncc2c1)c1cccc(O)c1 [Compound 93, (E)-3-(4-((E)-2-(3-Hydroxyphenyl)-1-(1H-indazol-5-yl)but-1-en-1-yl)phenyl)acrylic acid]	++ (++ = a single % value ≧ 40%)
> 100 nM	≥ 40%	≤ 100 nM	CC/C(=C(/c1ccc(/C=C/C(=O)O)cc1)c1ccc2[nH]ncc2c1)c1ccccc1O [Compound 94, (E)-3-(4-((E)-2-(2-Hydroxyphenyl)-1-(1H-indazol-5-yl)but-1-en-1-yl)phenyl)acrylic acid]	++ (++ = a single % value ≧ 40%)
≤ 100 nM	≥ 40%	≤ 100 nM	CC/C(=C(/c1ccc(/C=C/C(=O)O)cc1)c1ccc2[nH]ncc2c1)c1ccc(O)cc1 [Compound 95, (E)-3-(4-((E)-2-(4-Hydroxyphenyl)-1-(1H-indazol-5-yl)but-1-en-1-yl)phenyl)acrylic acid]	++ (++ = a single % value ≧ 40%)
≤ 100 nM	≥ 40%		CC/C(=C(/c1ccc(/C=C/C(=O)O)cc1)c1ccc2[nH]ncc2c1)c1ccccc1S(C)(=O)=O [Compound 98, (E)-3-(4-((E)-1-(1H-Indazol-5-yl)-2-(2-(methylsulfonyl)phenyl)but-1-en-1-yl)phenyl)acrylic acid]	++ (++ = a single % value ≧ 40%)
